Data on three compounds can be found in ChEMBL document CHEMBL1158089, “Indoleamine 2,3-dioxygenase inhibitors from the Northeastern Pacific Marine Hydroid Garveia annulata” (J Nat Prod, 2006).

The structures appear in SMILES notation.

The term Ki denotes a dissociation constant, usually derived from enzyme kinetics or from competition with a known ligand. High values mean weaker binding, low ones tighter binding.

Sequence of Indoleamine 2,3-dioxygenase 1 (P14902 whole entry): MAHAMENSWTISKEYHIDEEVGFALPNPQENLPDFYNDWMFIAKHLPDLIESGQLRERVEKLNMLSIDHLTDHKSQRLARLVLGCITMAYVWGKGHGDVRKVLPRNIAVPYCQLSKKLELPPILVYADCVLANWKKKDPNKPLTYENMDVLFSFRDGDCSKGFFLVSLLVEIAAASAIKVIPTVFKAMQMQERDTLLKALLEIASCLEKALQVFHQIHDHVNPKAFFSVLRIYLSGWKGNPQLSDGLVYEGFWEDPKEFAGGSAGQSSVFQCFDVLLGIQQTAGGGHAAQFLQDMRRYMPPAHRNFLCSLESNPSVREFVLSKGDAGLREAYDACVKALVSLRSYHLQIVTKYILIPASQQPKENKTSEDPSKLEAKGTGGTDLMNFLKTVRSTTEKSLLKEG

The assay addresses Indoleamine 2,3-dioxygenase 1 (Homo sapiens, UniProt P14902). The assay is described as follows: Inhibition of human indoleamine 2,3-dioxygenase expressed in Escherichia coli by spectrophotometric activity assay.
As for `CCc1c(C)cc2c(c1O)C(=O)C1=C(C2=O)C(C)(C)OC1(OC)C(=O)OC` (stereo not drawn) [ANNULIN C], affinity was put at a Ki of 140 nM. The figure for `COc1c(C(C)=O)c(C)cc2cc3c(c(O)c12)C(=O)C(C)(C)C(=O)C3(C)C` [GARVEATIN C] is 1200 nM. The figure for `CCC1=C(C)C(=O)c2cc3c(c(O)c2C1=O)C(=O)C(C)(O)C(=O)C3(C)C` (stereo not drawn) is 1400 nM.
